This is an account of results in patent publication US11345725B2, “Bis-thioether stapled peptides as inhibitors of PRC2 function” (Research Foundation of the City University of New York, priority 2019, dated 2022).

Like-named read-outs stand apart in the source and are kept apart here. Starred links: 1 amine or outer side, 2 acyl side, 3 side chain; linkers in the order of their positions; H or OH if unused. Positions of bridges follow the written chain, without caps; N, C: chain ends. Residues, ends and D or L forms follow the SMILES beside them. X6 = C(=C\C[*:2])/C[*:1]; X4 = C(CCC[*:2])CC[*:1]; X1 = C(C[*:1])C[*:2]

A short description of one series: circular dichroism. Particulars: deionized water; pH unbuffered; 20 °C; 25 uM. Background: Circular dichroism is widely used to follow secondary structure.
A further series concerns Caki-1 cells. Format: cell-based, human. How it is done: All of the cells were grown adherently.
Antiproliferative assays. […] For the following 72h, every 24 h the cell culture media was changed and fresh media containing the compounds was added, 1% DMSO was used as control. After 72h of treatment, both floating and attached cells were collected and analyzed.

The nature of another series: Plasma stability test. Particulars: human plasma, 37° C. Format: in vitro ADME. How it is done:
1 mM stock solution of the corresponded peptide was prepared in PBS buffer (pH 7.4). Next, 50 μL from […] this solution were added to 1 mL of human plasma (Sigma-Aldrich, P9523). The mixture was incubated at 37° C. with mechanical shaking at 300 rpm. Aliquots were withdrawn in portions of 150 μL at different time points for analysis and mixed with 60 μL ACN/EtOH (1:1 v/v) for plasma protein precipitation. After centrifugation at 12000 rpm for 5 min, the supernatant was collected and analyzed by HPLC and HPLC-MS.

A further series can be described thus: FIG. 2D. From the text:
Table printed on a drawing sheet, FIG. 2D
(§1) The patent's description of the figure: FIG. 2A depicts the results of biochemical assays showing structure of the synthesized stapled peptides, and their correspondent helicity and IC50 values for inhibition of H3K27 trimethylation in vitro, as determined by a histone methyltransferase colorimetric assay optimized using endogenous PRC2 extracted from a human clear cell renal carcinoma cell line (Caki-1);
(§2) FIG. 2B depicts a CD spectra of stapled peptides and their linear counterparts measured in water at 20° C.;
FIG. 2C illustrates a plot of H3K27 trimethylation inhibition using the enzymatic in vitro assay described in FIG. 2A, with varying concentrations of 2 (GN-ZB2), positive control GSK126, and using an equimolar combination of both compounds to test their synergistic effects. A summary of the IC50 values for inhibition of H3K27me3 determined from the experiments is also presented. […]
(§3) FIG. 2D show both Chymotrypsin-based proteolytic degradation as well as the plasma assay show remarkable stability of the disclosed i, i+4 and i, i+7 12 bisthioether stapled peptides. The rate of peptide proteolysis was monitored by HPLC and HPLC-MS analysis.
First reader's note: The Assay column joins the peptide number (label) with the matrix (chymotrypsin or plasma, condition); units stand in the cells.

The next series is described as follows: FIG. 5A. How it is done: (§4) Table printed on a drawing sheet, FIG. 5A
(§5) FIG. 5C is a CD spectra of stapled peptides and their linear counterparts measured in water at 20° C.;
(§6) FIG. 5E is a plot of H3K27me3 inhibition obtained in an enzymatic assay using endogenous PRC2 extracted from Caki-1 cells and recombinant PRC2 complex (for compound 11);
First reader's note: Half-life units (min or h) stand in the cells; the compound structures are in the upper table of FIG. 5A.

Series [1] relates to endogenous PRC2 extracted from a human clear cell renal carcinoma cell line (Caki-1). Briefly: H3K27Me3 Inhibition (% at 1 mM). How it is done:
as §4
Head of the field: H3K27Me3 Inhibition (% at 1 mM)
as §5, §6
First copying reader's note: Half-life units (min or h) stand in the cells; the compound structures are in the upper table of FIG. 5A.
Where the first naming reader finds the target: passage: using as catalytic complex endogenous PRC2 extracted from a human clear cell renal carcinoma cell line (Caki-1)

The test system is the same in series [2]. Briefly: IC50 (uM).
Source text: Table printed on a drawing sheet, FIG. 2A
Head of the field: IC50 (uM)
as §1, §2
FIG. 2C illustrates a plot of H3K27 trimethylation inhibition using the enzymatic in vitro assay described in FIG. 2A, with varying concentrations of 2 (GN-ZB2), positive control GSK126, and using an equimolar combination of both compounds to test their synergistic effects. A summary of the IC50 values for inhibition of H3K27me3 determined from the experiments is also presented. Calculation of the combination index using the equation described by Chou et al. indicated a marked synergistic effect (CI=0.53) of 2 (GN-ZB2) and GSK126;
as §3
First copying reader's note: IC50 cells hold the value and its ± error together.
Where the first naming reader finds the target: description_of_the_figure: histone methyltransferase colorimetric assay optimized using endogenous PRC2 extracted from a human clear cell renal carcinoma cell line (Caki-1)

The target of series [3] is T1, α-chymotrypsin from bovine pancreas type II (Bos taurus, UniProt P00766).
T1 construct: freshly prepared α-chymotrypsin from bovine pancreas type II, ≥40 U/mg; purchased; host or cells: bovine pancreas
Briefly: Chymotrypsin stability test. It is filed as in vitro ADME. The method, then: Assays were performed using freshly prepared α-chymotrypsin from bovine pancreas type II, ≥40 U/mg. The enzyme was initially reconstituted in HCl […] (1 μg/μL), and kept in ice until used. Peptides stock solutions were prepared in assay buffer (50 mM Tris.HCl pH=8.0, 560 μM calcium chloride, 0.1% Tween-20) containing <3% of DMSO. The reactions were performed at a 200 μL scale, in assay buffer, at final concentrations of 50 μM for peptide and […] for α-chymotrypsin (10 μL from the reconstitution solution). The mixture was incubated at 37° C. and aliquots were withdrawn in portions of 25 μL at different time points for analysis. The removed aliquots were mixed with 25 μL of water 1% TFA, and then treated with a column for detergent removal following the manufacturer's protocol (Pierce, Catalog #:87776). The rate of peptide proteolysis was monitored by HPLC and HPLC-MS analysis. Control experiments were carried out under the same conditions but using BSA instead of α-chymotrypsin.

With `CC[C@H](C)[C@@H]1NC(=O)[C@@H](NC(=O)[C@H](Cc2ccc(O)cc2)NC(=O)[C@H](CCC(=O)O)NC(=O)[C@H](CCC(=O)O)NC(=O)[C@H](CC(N)=O)NC(=O)[C@@H](NC(=O)[C@@H](NC(C)=O)C(C)C)[C@@H](C)CC)CSCCCCCCSC[C@@H](C(=O)N[C@@H](CC(N)=O)C(=O)N[C@H](C(=O)N2CCC[C@H]2C(=O)N[C@@H](Cc2ccccc2)C(=O)N[C@@H](CC(C)C)C(N)=O)[C@@H](C)O)NC(=O)[C@H](CCCCN)NC(=O)[C@H](Cc2c[nH]c3ccccc23)NC1=O` (Ac-VINEEYCIWKCNTPFL-NH2; linker 7-11 via X4), the helicity in “circular dichroism” came out at 19.4%.

`CC[C@H](C)[C@@H]1NC(=O)[C@@H](NC(=O)[C@H](Cc2ccc(O)cc2)NC(=O)[C@H](CCC(=O)O)NC(=O)[C@H](CCC(=O)O)NC(=O)[C@H](CC(N)=O)NC(=O)[C@@H](NC(=O)[C@@H](NC(C)=O)C(C)C)[C@@H](C)CC)CSC/C=C/CSC[C@@H](C(=O)N[C@@H](CC(N)=O)C(=O)N[C@H](C(=O)N2CCC[C@H]2C(=O)N[C@@H](Cc2ccccc2)C(=O)N[C@@H](CC(C)C)C(N)=O)[C@@H](C)O)NC(=O)[C@H](CCCCN)NC(=O)[C@H](Cc2c[nH]c3ccccc23)NC1=O` (Ac-VINEEYCIWKCNTPFL-NH2; linker 7-11 via X6) gave a helicity in “circular dichroism” of 24.2%.

In the series on Caki-1 cells (72 h), `CC[C@H](C)[C@@H]1NC(=O)[C@@H](NC(=O)[C@H](CC(=O)O)NC(=O)[C@@H](NC(=O)[C@@H](NC(C)=O)[C@@H](C)O)C(C)C)CSCCCSC[C@@H](C(=O)N[C@@H](CC(C)C)C(=O)N[C@@H](CO)C(=O)N[C@H](C(=O)N[C@@H](CC(C)C)C(=O)N[C@@H](C)C(=O)N[C@@H](CCC(=O)O)C(=O)N[C@@H](CCC(=O)O)C(=O)N[C@H](C(=O)N2CCC[C@H]2C(=O)N[C@@H](CCC(N)=O)C(=O)N[C@@H](CC(N)=O)C(N)=O)C(C)C)C(C)C)NC(=O)[C@H](CO)NC(=O)[C@H](C)NC1=O` [2 (GN-ZB2), TVD[CIASC](CH2)3LSVLAEEVPQN] (Ac-TVDCIASCLSVLAEEVPQN-NH2; linker 4-8 via X1; C-terminus assumed) registered an IC50 of 0.25 ± 0.03 µM. The “stability in plasma” value in “Plasma stability test” is listed as “high resistance to proteolysis”.

As to `CC[C@H](C)[C@@H]1NC(=O)[C@@H](NC(=O)[C@H](CC(=O)O)NC(=O)[C@@H](NC(=O)[C@@H](NC(C)=O)[C@@H](C)O)C(C)C)CSCCCSC[C@@H](C(=O)N[C@@H](CC(C)C)C(=O)N[C@@H](CO)C(=O)N[C@H](C(=O)N[C@@H](CC(C)C)C(=O)N[C@@H](C)C(=O)N[C@@H](CCC(=O)O)C(=O)N[C@@H](CCC(=O)O)C(=O)N[C@H](C(=O)N2CCC[C@H]2C(=O)N[C@@H](CCC(N)=O)C(=O)N[C@@H](CC(N)=O)C(N)=O)C(C)C)C(C)C)NC(=O)[C@H](CO)NC(=O)[C@H](C)NC1=O` [2 Chymotrypsin] (Ac-TVDCIASCLSVLAEEVPQN-NH2; linker 4-8 via X1), the “Half Life” value in “FIG. 2D” is 40.9 h.

For `CC[C@H](C)[C@@H]1NC(=O)[C@@H](NC(=O)[C@H](CC(=O)O)NC(=O)[C@@H](NC(=O)[C@@H](NC(C)=O)[C@@H](C)O)C(C)C)CSCCCSC[C@@H](C(=O)N[C@@H](CC(C)C)C(=O)N[C@@H](CO)C(=O)N[C@H](C(=O)N[C@@H](CC(C)C)C(=O)N[C@@H](C)C(=O)N[C@@H](CCC(=O)O)C(=O)N[C@@H](CCC(=O)O)C(=O)N[C@H](C(=O)N2CCC[C@H]2C(=O)N[C@@H](CCC(N)=O)C(=O)N[C@@H](CC(N)=O)C(N)=O)C(C)C)C(C)C)NC(=O)[C@H](CO)NC(=O)[C@H](C)NC1=O` [2 Plasma] (Ac-TVDCIASCLSVLAEEVPQN-NH2; linker 4-8 via X1), in the series “FIG. 2D”, the “Half Life” value came to 20.6 h.

`CC[C@H](C)[C@H](NC(=O)[C@H](CC(C)C)NC(=O)[C@H](Cc1ccccc1)NC(=O)[C@H](CC(=O)O)NC(=O)[C@H](Cc1c[nH]cn1)NC(=O)[C@H](CCSC)NC(=O)[C@H](CO)NC(=O)[C@@H](NC(=O)[C@@H]1CSCCCSC[C@H](NC(=O)[C@H](CC(N)=O)NC(=O)[C@H](CCCNC(=N)N)NC(=O)[C@H](CS)NC(=O)[C@H](CC(C)C)NC(C)=O)C(=O)N[C@@H](CCSC)C(=O)N[C@@H](CC(C)C)C(=O)N[C@@H](Cc2c[nH]cn2)C(=O)N1)C(C)C)C(N)=O` [11 (GN-ZW11), LCRN[CMLHC](CH2)3VSMHDFLI] (Ac-LCRNCMLHCVSMHDFLI-NH2; linker 5-9 via X1): the helicity in the series “circular dichroism” was 95.1%. In the series “FIG. 5A”, the “Proteolytic Stability (Chymotripsin, t1/2)” value is recorded as 14.4 h and the “Proteolytic Stability (Plasma, t1/2)” value is listed as 7.3 h. In series [1], the “H3K27Me3 Inhibition (% at 1 mM)” value is 98.3 % at 1 mM.

On to `CC[C@H](C)n1cc(C)c2c(C(=O)NCc3c(C)cc(C)[nH]c3=O)cc(-c3ccc(N4CCNCC4)nc3)cc21` [GSK126], for which the IC50 with Caki-1 cells (Caki-1 cells, 72h daily treatment, colorimetric method, read-out: IC50 cell proliferation) was determined as 0.15 ± 0.06 µM. Moreover, in the series on Caki-1 cells (Caki-1 cells, 72h of daily treatment), the “effect on cell proliferation” value is listed as “significantly inhibits cell proliferation”.

Ac-EWLREKTITQIEEF-NH2 registered a helicity in “circular dichroism” of 20.9%.

As to Ac-LCRNFMLHLVSMHDFLI-NH2, the helicity in “circular dichroism” worked out at 59.9%.

Take “Ac-TVDKIASA[CSVLAEEC]PQN-CONH2 CH2(CH2)4CH2 (TVDKIASACSVLAEECPQN; N-acetyl, C-amide, hexylene bisthioether staple; Synthetic bisthioether stapled peptide; compound 4; THIOETH (9)..(16) (CH2)6 linker between residues 9 and 16) [4 | SEQ ID NO: 6]”: the IC50 in series [2] was determined as 10.1 ± 1.1 µM.

In the case of “Ac-TVDKIASA[CSVLAEEC]PQN-CONH2 CH2(CH2)5CH2 (TVDKIASACSVLAEECPQN; N-acetyl, C-amide, heptylene bisthioether staple; Synthetic bisthioether stapled peptide; Compound 5; THIOETH (9)..(16) (CH2)7 linker between residues 9 and 16) [5 | SEQ ID NO: 7]”, in series [2], the IC50 is 27.1 ± 1.2 µM.

Turning to “Ac-TVDKIASA[CSVLAEEC]PQN-CONH2 CH2(CH2)6CH2 (TVDKIASACSVLAEECPQN; N-acetyl, C-amide, octylene bisthioether staple; Synthetic bisthioether stapled peptide; Compound 6; THIOETH (9)..(16) (CH2)8 linker between residues 9 and 16) [6 | SEQ ID NO: 8]”, in series [2], the IC50 turned out to be 17 ± 1.4 µM.

The molecule “Ac-VINEEYKIWKKNTPFL-NH2 [compound 13, reference compound]” came in with a helicity in “circular dichroism” of 16.4%. In series [3], the “time to full degradation by chymotrypsin” value was “half an hour”. In addition, the half-life in series [3] (bovine, read-out: t1/2 chymotrypsin stability assay (converted)) was 0.5 h.
